Legend:
Type in all cases: in vivo
Boophilus microplus = Boophilus microplus test (injection); details: for mortality at 0.02 mg: Rhipicephalus microplus, 168 h, read-out: activity (mortality in %; 100% means that all eggs are infertile); for activity (mortality in %; 100% means that all eggs are infertile): application rate of 20 μg/animal, injection, after 7 days
Method: (§1) Solvent: dimethyl sulfoxide
Five adult engorged female ticks (Boophilus microplus) are injected with […] compound solution into the abdomen. Ticks are transferred into replica plates and incubated in a climate chamber for a period of time. Egg deposition of fertile eggs is monitored.
After 7 days mortality in % is determined. 100% means that all eggs are infertile; 0% means that all eggs are fertile. […]

[1] = tested on: Tobacco Cutworm (Spodoptera litura) Larvae; assay: Test against tobacco cutworm (Spodoptera litura) larvae, leaf dip; details: active compound concentration of 100 ppm, third instar larvae, after 7 days; for pest or weed control at 100 ppm: Spodoptera litura, foliar, 168 h, read-out: insecticidal activity
In short: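 Sweet potato leaves were dipped in the test solution (DMF solvent, polyoxyethylene alkyl phenyl ether emulsifier), air-dried and offered to ten third-instar larvae per dish at 25 °C, with fresh leaves added on days 2 and 4. Mortality was counted at day 7 and expressed as % insecticidal activity (100% = all dead).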

[2] = tested on: Cucurbit Leaf Beetle (Aulacophora Femoralis); assay: Test against cucurbit leaf beetle (Aulacophora femoralis), leaf dip; details: active compound concentration of 100 ppm, second instar larvae, after 7 days; for pest or weed control at 100 ppm: Aulacophora, foliar, 168 h, read-out: insecticidal activity
In short: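 Cucumber leaves dipped in compound solution (DMF solvent, polyoxyethylene alkyl phenyl ether emulsifier), air-dried, and placed with five second-instar larvae in cups on sterilized soil at 25° C. Dead larvae counted after 7 days; activity expressed as percent larvae killed.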

[3] = tested on: Lucilia cuprina 1st instar larvae; assay: whole plant or invertebrate; details: for mortality at 100 ppm: Lucilia cuprina, 48 h, read-out: activity (percentage of larval mortality); for activity (percentage of larval mortality): application rate of 100 ppm, after 48 hrs
Method: species: Lucilia cuprina 1st instar larvae (age 24 hrs)
solvent: dimethyl sulfoxide
Serial dilutions are made to obtain the desired rates. Approximately 20 Lucilia cuprina 1st instar larvae are transferred into a test tube containing 1 cm^3 of minced horse meat and 0.5 ml aqueous dilution of test compound. After 48 hrs percentage of larval mortality are recorded. 100% efficacy=all larvae are killed, […].

[4] = tested on: Two-Spotted Spider Mite (Tetranychus Urticae); assay: Test against two-spotted spider mite (Tetranychus urticae), spray; details: active compound concentration of 100 ppm; adult mites; after 7 days
Text: Solvent: 3 parts by weight of dimethylformamide
Emulsifier: 1 part by weight of polyoxyethylene alkyl phenyl ether

Ctenocephalides felis = assay: whole plant or invertebrate; details: for activity (mortality in %): application rate of 100 ppm in cattle blood, after 2 days; for mortality at 100 ppm: Ctenocephalides felis, in Bos taurus, 48 h, read-out: activity (mortality in %)
Method: as §1
Approximately 20 adult unfed (Ctenocepahlides felis) are placed in flea chambers. […] The blood chamber is heated to 37° C. whereas the flea chamber is kept at room temperature.

| SMILES | insecticidal activity [1] [%] | insecticidal activity [2] [%] | acaricidal activity [4] [%] | also measured |
| --- | --- | --- | --- | --- |
| CCc1cc(C(F)(C(F)(F)F)C(F)(F)F)cc(C)c1NC(=O)c1ccc(C#N)c(C)c1 [Compound I-5, 4-cyano-N[2-ethyl-4-(1,1,1,2,3,3,3-heptafluoropropan-2-yl)-6-methylphenyl]-3-methylbenzamide] |  |  |  | mortality at 0.02 mg (Boophilus microplus): 100%; pest or weed control at 100 ppm [1]: 100%; pest or weed control at 100 ppm [2]: 100%; mortality at 100 ppm [3]: 100% |
| CCc1cc(C(F)(C(F)(F)F)C(F)(F)C(F)(F)F)cc(C)c1NC(=O)c1ccc(CNC(=O)c2cccnc2F)c(F)c1 (centres unmarked) [Compound 5-174] | 100 | 100 |  | activity (percentage of larval mortality) [3]: 95% |
| CCc1cc(C(F)(C(F)(F)F)C(F)(F)C(F)(F)F)cc(C)c1NC(=O)c1ccc(CNC(=O)C2CC2)c(F)c1 (centres unmarked) [Compound 5-146] | 100 |  |  | activity (percentage of larval mortality) [3]: 95% |
| CCc1cc(C(F)(C(F)(F)F)C(F)(F)F)cc(C)c1NC(=O)c1ccc(CNC(=O)CC(F)(F)F)c(C)c1 [Compound 5-102] |  |  | 100 | mortality at 0.02 mg (Boophilus microplus): 100%; pest or weed control at 100 ppm [1]: 100%; pest or weed control at 100 ppm [2]: 100% |
| CCC(=O)NCc1ccc(C(=O)Nc2c(C)cc(C(F)(C(F)(F)F)C(F)(F)C(F)(F)F)cc2CC)cc1 (centres unmarked) [Compound 5-139] | 100 | 100 |  | activity (mortality in %) (Ctenocephalides felis): 98% |
| CCc1cc(C(F)(C(F)(F)F)C(F)(F)F)cc(C)c1NC(=O)c1ccc(CNC(=O)CC2CC2)cn1 [Compound 7-5] | 100 | 100 |  | activity (mortality in %; 100% means that all eggs are infertile) (Boophilus microplus): 95% |
| CCc1cc(C(F)(C(F)(F)F)C(F)(F)F)cc(C)c1NC(=O)c1ccc(-n2cncn2)c(NC(=O)OC)c1 [Compound 1-47, Methyl[5-{[2-ethyl-4-(1,1,1,2,3,3,3-heptafluoropropan-2-yl)-6methylphenyl]carbamoyl}-2-(1H-1,2,4-triazol-1-yl)phenyl]carbamate] |  |  |  | mortality at 0.02 mg (Boophilus microplus): 100%; pest or weed control at 100 ppm [1]: 100%; pest or weed control at 100 ppm [2]: 100%; mortality at 100 ppm (Ctenocephalides felis): 90% |
| CCc1cc(C(F)(C(F)(F)F)C(F)(F)F)cc(C)c1NC(=O)c1ccc(CN2C(=O)c3ccccc3C2=O)cc1 [Compound F-4, 4-[(1,3-dioxo-1,3-dihydro-2H-isoindol-2-yl)methyl]-N-[2-ethyl-4-(1,1,1,2,3,3,3-hepta-fluoropropan-2-yl)-6-methylphenyl]benzamide] |  |  |  | mortality at 0.02 mg (Boophilus microplus): 100%; mortality at 100 ppm [3]: 90% |
| CCc1cc(C(F)(C(F)(F)F)C(F)(F)C(F)(F)F)cc(C)c1NC(=O)c1ccc(CNC(=O)CC(F)(F)F)cc1 (centres unmarked) [Compound 5-142] | 100 | 100 |  | activity (percentage of larval mortality) [3]: 95% |
| CCc1cc(C(F)(C(F)(F)F)C(F)(F)C(F)(F)F)cc(C)c1NC(=O)c1ccc(CNC(=O)C2CC2)c(Br)c1 (centres unmarked) [Compound 5-159] | 100 |  |  | activity (mortality in %) (Ctenocephalides felis): 98% |
| CCc1cc(C(F)(C(F)(F)F)C(F)(F)F)cc(C)c1NC(=O)c1ccc(CNC(=O)C2CC2)cc1 [Compound 5-30] | 100 | 100 | 100 |  |
| CCc1cc(C(F)(C(F)(F)F)C(F)(F)C(F)(F)F)cc(C)c1NC(=O)c1ccc(CNC(=O)c2cccnc2Cl)c(Br)c1 (centres unmarked) [Compound 5-175] | 100 | 100 | 100 |  |
| CCC(=O)NCc1ccc(C(=O)Nc2c(C)cc(C(F)(C(F)(F)F)C(F)(F)Br)cc2CC)cc1Cl (centres unmarked) [Compound 5-220] | 100 | 100 | 100 |  |
| CCc1cc(C(F)(C(F)(F)F)C(F)(F)C(F)(F)F)cc(C)c1NC(=O)c1ccc(CNC(C)=O)c(Br)c1 (centres unmarked) [Compound 5-157] | 100 | 100 | 100 |  |
| CCC(=O)NC(C)c1ccc(C(=O)Nc2c(C)cc(C(F)(C(F)(F)F)C(F)(F)F)cc2CC)cc1 (centres unmarked) [Compound 9-3] | 100 | 100 | 100 |  |
| O=C(CC1CC1)NCc1ccc(C(=O)Nc2c(Cl)cc(C(F)(C(F)(F)F)C(F)(F)F)cc2Cl)cc1 [Compound 5-225] | 100 | 100 | 100 |  |
| CCc1cc(C(F)(C(F)(F)F)C(F)(F)C(F)(F)F)cc(C)c1NC(=O)c1ccc(CNC(C)=O)c(I)c1 (centres unmarked) [Compound 5-194] | 100 |  |  | activity (percentage of larval mortality) [3]: 95% |
| CCc1cc(C(F)(C(F)(F)F)C(F)(F)F)cc(C)c1NC(=O)c1ccc(CNC(C)=O)c(Br)c1 [Compound 5-85] | 100 | 100 | 100 |  |
| CCc1cc(C(F)(C(F)(F)F)C(F)(F)F)cc(C)c1NC(=O)c1ccc(-n2cncn2)c(N)c1 [Compound 1-38, 3-amino-N-[2-ethyl-4-(1,1,1,2,3,3,3-heptafluoropropan-2-yl)-6-methylphenyl]-4-(1H-1,2,4-triazol-1-yl)benzamide] |  |  |  | mortality at 0.02 mg (Boophilus microplus): 100%; pest or weed control at 100 ppm [1]: 100%; mortality at 100 ppm (Ctenocephalides felis): 100%; mortality at 100 ppm [3]: 100% |
| CCc1cc(C(F)(C(F)(F)F)C(F)(F)F)cc(C)c1NC(=O)c1ccc2c(c1)CCC2NC(=O)CC(F)(F)F (centres unmarked) [Compound 10-6] | 100 | 100 | 100 |  |
| CC(=O)NCc1ccc(C(=O)Nc2c(Cl)cc(C(F)(C(F)(F)F)C(F)(F)C(F)(F)F)cc2Cl)cc1Cl (racemic) [Compound 5-242] | 100 | 100 | 100 |  |
| CCc1cc(C(F)(C(F)(F)F)C(F)(F)F)cc(C)c1NC(=O)c1ccc(C#N)nc1 [Compound J-1] |  |  |  | activity (mortality in %; 100% means that all eggs are infertile) (Boophilus microplus): 95% |
| CCc1cc(C(F)(C(F)(F)F)C(F)(F)F)cc(C)c1NC(=O)c1ccc(CNC(=O)c2cccnc2F)c(Cl)c1 [Compound 5-82] | 100 | 100 | 100 | activity (percentage of larval mortality) [3]: 95% |
| CCc1cc(C(F)(C(F)(F)F)C(F)(F)F)cc(C)c1NC(=O)c1ccc(-n2cncn2)c(CNC(=O)OC(C)(C)C)c1 [Compound 12-1, tert-butyl[5-{[2-ethyl-4-(1,1,1,2,3,3,3-heptafluoropropan-2-yl)-6-methylphenyl]carbamoyl}-2-(1H-1,2,4-triazol-1-yl)benzyl]carbamate] |  |  |  | mortality at 0.02 mg (Boophilus microplus): 100%; pest or weed control at 100 ppm [1]: 100% |
| CCc1cc(C(F)(C(F)(F)F)C(F)(F)Br)cc(C)c1NC(=O)c1ccc(CNC(C)=O)c(Cl)c1 (centres unmarked) [Compound 5-219] | 100 | 100 | 100 |  |
| CCc1cc(C(F)(C(F)(F)F)C(F)(F)F)cc(C)c1NC(=O)c1ccc(CNC(C)=O)cc1 [Compound 5-28, 4-(acetamidomethyl)-N-[2-ethyl-4-(1,1,1,2,3,3,3-heptafluoro-propan-2-yl)-6-methylphenyl]benzamide] |  |  | 100 | mortality at 0.02 mg (Boophilus microplus): 100%; pest or weed control at 100 ppm [1]: 100%; mortality at 100 ppm (Ctenocephalides felis): 100% |

Reference: patent US9227923B2, “Pesticidal carboxamides” (Bayer Intellectual Property GmbH, priority 2009, dated 2016)
